Experimental data: US8784911B2, “Compositions for treatment and prevention of diabetic complications using Osteomeles schwerinae” (Korea Institute of Oriental Medicine, priority 2009, dated 2014)

How the values were obtained:
[1] = Free radical scavenging activity by DPPH method; assay type: biochemical; conditions: 30 minutes, room temperature
Method: Anti-oxidative effect of Osteomeles […] extract, fractions thereof obtained from each of hexane layer, ethyl acetate layer, butanol layer and water layer of the extract was investigated in vitro. Free radical scavenging activity of each sample was measured by DPPH method (Brand-Williams W, et al., Technology, 1995, 28, 25-30). Samples were dissolved in ethanol, and diluted at different concentrations. Each of the diluted sample was distributed in 96 well plate (20 μl/well). […] DPPH solution dissolved in ethanol was added to each well by 180 μl to make the final volume of the reaction solution 200 μl, followed by reaction at room temperature for 30 minutes. Then, OD517 was measured with ELISA reader (Bio-TEK, Synergy HT, USA) to investigate absorbance changes by reduction of DPPH. Free radical scavenging activity was presented as RC50, which is the amount of sample (μg/ml) needed for the reduction of 50% DPPH. For the positive control, butylated hydroxytoluene (BHT) was used. Anti-oxidative effect of Osteomeles […] extract was measured in vitro by the same manner as described above and the results are shown in Table 7.

[2] = tested on: type II diabetes animal model, Spontaneous Diabetic Torii (SDT) rat; assay: Type II diabetes animal model, SDT rat; assay type: in vivo
Text: To investigate the preventive and therapeutic effect of Osteomeles schwerinae on diabetic complications in type II diabetes animal model, the extract was orally administered to Spontaneous Diabetic Torii (SDT) rats for 16 weeks, followed by analysis of the effect. Spontaneous Diabetic Torii (SDT) rats, the type II diabetes animal model, were used as test animals. Particularly, male SDT rats at 10 weeks (CLEA Japan Inc., Tokyo, Japan) were adapted for 1 week, and then raised for 15 weeks until high blood glucose was induced up to the level of 300 mg/dl. Feeds and water were provided freely. 15 weeks later, the rats were divided into 5 groups, 8 rats per each group. As test drugs, Osteomeles schwerinae extract (Os-100, OS-250) and metformin (MET, control drug) were orally administered once a day. The experimental groups were as follows: the normal group (NOR), the diabetes group (DM), the diabetes group treated with 350 mg/kg of metformin (MET), the diabetes group treated with 100 mg/kg of Osteomeles schwerinae extract (OS-100), and the diabetes group treated with 250 mg/kg of Osteomeles schwerinae extract (OS-250). Each group was orally administered with the test drug once a day for 16 weeks. Urine was taken for 24 hours before autopsy. The organs extracted from the autopsy were stored at −80° C.
The test animals were anesthetized by peritoneally injecting pentobarbital sodium (25 mg/kg body weight). Heart was extracted by opening abdominal cavity and thoracic cavity. 50 mg/ml of fluorescein-dextran (2×10^6 molecular weight) dissolved in 1 ml/ml sterilized PBS was injected in the left ventricle. 10 minutes later, eye balls were extracted. Retina was separated from eyecup of the left eye ball. The isolated retina was placed on the slide, followed by mounting with aqueous mounting medium. The slide was completely dried and observed under fluorescent microscope. Fluorescent material was injected in retinal blood vessel, followed by observation. […] To investigate blood-retinal barrier damage, outflow of the fluorescent material was observed. […] However, the fluorescent material was leaked out of blood vessels, indicating blood-retinal barrier damage, in multiple animals of the diabetes group (arrow), and non-perfusion area (arrow) caused by the blood vessel being narrow was also observed in some of those animals in the diabetes group.
Lens was separated and lens opacity was examined to investigate the preventive effect of the extract on lens opacity. Eye balls were extracted during autopsy, which were placed in PBS (phosphate buffered saline, pH 7.4). Lens was carefully separated from the eyeball by posterior approach. Then, iris and zonule were eliminated. The lens was photographed under optical microscope equipped with CCD camera (BX51, Olympus, Japan). Lens opacity was measured with the photographed lens images by using Scion image analyzer (Scion Corporation, USA). The results of investigation of lens opacity with the lens isolated from the eye ball extracted during autopsy are shown in FIG. 39 and in FIG. 40. […] Incidence rate of cataract and lens opacity were quantitatively analyzed.
Lens opacity is caused by the degeneration of lens fiber composing lens. Thus, to investigate the effect of Osteomeles schwerinae extract on lens fiber degeneration, the effect of Osteomeles schwerinae extract on lens fiber degeneration in SDT type II diabetes rat was analyzed. To observe the degeneration of lens fiber induced by cataract, lens was fixed in 10% neutralized formalin (Microme, USA) for 24 hours, followed by the conventional tissue treatment. After paraffin embedding, the embedded block was cut into 2 μm thick sections, followed by hydration. The sections were stained with rhodamine-labeled wheat-germ agglutinin (WGA, Vector Laboratory, USA), and observed under fluorescent microscope (BX51, Olympus, Japan). To investigate the preventive effect on lens fiber degeneration, lens was stained and observed. […]

[3] = tested on: type II diabetes animal model, Spontaneous Diabetic Torii (SDT) rat; assay: Type II diabetes animal model, SDT rat; assay type: in vivo; conditions: oral once a day 16 weeks; extract 100 and 350 mg/kg as printed; metformin 350 mg/kg; vs diabetes group

Structure (SMILES) | RC50 (μg/ml), amount of sample needed for the reduction of 50% DPPH [1] | blood-retinal barrier damage, outflow of the fluorescent material ([2]; 16 weeks) | pericyte loss, acellular capillary formation and closed vessels ([2]; 16 weeks) | GFAP positive reaction, Muller cell activation ([2]; 16 weeks, vs diabetes group) | aldose reductase (AR) activity in lens ([2]; 16 weeks, extract 250 mg/ml as printed, metformin, vs diabetes group) | lens fiber degeneration, swelling and vesicle formation ([2]; 16 weeks, extract high concentration, metformin 350 mg/kg) | retinal angiogenesis, fluorescein-dextran ([2]; 16 weeks, extract low and high concentration, metformin 350 mg/kg) | podocyte loss, synaptopodin staining ([2]; 16 weeks, extract low and high concentration, metformin 350 mg/kg, vs diabetes group) | glomerular hypertrophy and mesangial matrix enlargement, PAS staining ([2]; oral once a day 16 weeks, extract 100 and 250 mg/kg, metformin 350 mg/kg) | level of AGEs in urine [3]
Cc1cc(C(C)(C)C)c(O)c(C(C)(C)C)c1 [BHT, butylated hydroxytoluene] | 26.75 ± 10.75 µg/mL |  |  |  |  |  |  |  |  | 
CN(C)C(=N)N=C(N)N [metformin] |  | observed just barely | significantly inhibited | rather decreased | AR activity was significantly reduced | improving effect was hardly observed | Angiogenesis was also observed | no significant difference | morphological changes were reduced, which was not significant | not significantly changed
